The target in data set [1] is T1, mvNei1 (Acanthamoeba polyphaga mimivirus, UniProt Q5UQ00).
T1 construct: 6His (C); made in house; host or cells: E. coli Rosetta2 (DE3)
The data set can be described thus: mvNei1 DNA glycosylase/AP lyase activity assay on DHU:G 24-mer duplex. The format is biochemical. As for the experimental part: (§1) Figure 4 Comparative analysis of the effect of 2TX and TXn on Fpg/Nei DNA glycosylases. Enzyme activities were measured as described in the Figure 1 legend using […] of a 5′-[^32P]-24-mer DNA duplex containing either an 8-oxoG opposite C for LlFpg or a […] (DHU) opposite G for hNeil1 and mvNei1. The DNA probe was incubated with the indicated protein concentration and 0.2 mM TXn compounds in the presence or absence of 1 mM dithiothreitol (DTT) and TCEP (a representative experiment is illustrated by the upper histograms). The DNA probe for EMSA was 0.1 nM of 5′-[^32P]-[…] DNA duplex containing THF with LlFpg and mvNei1 (bottom panels: gel autoradiography) with the indicated conditions and as described in ‘Materials and Methods’.
(§2) Fpg, hNeil1 and mvNei1 are bifunctional DNA glycosylases associated with concerted DNA glycosylase activity (cleavage of the N-glycosidic bond between the base lesion and the C1′ of the deoxyribose) and AP lyase activity that comprises the successive cleavage of the phosphodiester bonds at the 3′ and 5′ of the resulting abasic (AP) site, respectively (β, δ-elimination). Thus, AP sites that result from the excision of the damaged base are quantitatively converted into one nucleoside gap by these enzymes. The DNA glycosylase/AP lyase activity of each enzyme was measured by incubating 20 nM of 24-mer DNA duplexes ([OG:C] and [DHU:G] for Fpg and hNeil1/mvNei1, respectively) 5′-labeling on the damaged strand (see above) with 2 nM of Fpg, or mvNei1 for 15 min or, with 20 nM of hNeil1 for 30 min at 37 °C in 10 mM Tris-HCl, pH 7.6, 150 mM NaCl, 1 mM EDTA, 0.1 mg/mL BSA and 8% DMSO. The reaction was stopped by the addition of 1 volume of formamide loading buffer (96% formamide, 20 mM Tris/HCl pH 8.0 and 2 mM Na2EDTA), heated at 80 °C for 2 min and then analyzed by 20% Urea-PAGE, as previously described. […] Under these conditions, only 50% of the substrate is converted to the cleavage product (limiting enzyme concentration conditions). For an initial evaluation of the inhibitory effect, 40 µM of 2TX/TXn was used. The thio-compound was added to the reaction mixture before the final addition of the enzyme (competition condition). For the best identified inhibitors, a dose-response curve was generated and IC50^A determined (Figure 1 and Table 1).

Data set [2] addresses T2, hNeil1 (Homo sapiens, UniProt Q96FI4). Nature of the data set: EMSA, hNeil1 DNA binding to THF-containing DNA duplex. Conditions: Figure 4. (Mobility shift assays separate free from complexed probe on a gel.)
Target sequence in this assay (Q96FI4 2-290 limits assumed): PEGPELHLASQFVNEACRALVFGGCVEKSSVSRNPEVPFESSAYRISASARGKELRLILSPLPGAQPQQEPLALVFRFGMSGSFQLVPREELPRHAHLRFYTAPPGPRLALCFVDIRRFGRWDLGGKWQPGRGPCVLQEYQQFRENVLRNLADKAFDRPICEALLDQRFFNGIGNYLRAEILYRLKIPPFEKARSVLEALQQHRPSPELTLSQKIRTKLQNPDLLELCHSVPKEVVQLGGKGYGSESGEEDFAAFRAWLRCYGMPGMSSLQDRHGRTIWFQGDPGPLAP
A further data set concerns the target T3, LlFpg (Lactococcus lactis subsp. cremoris, UniProt P42371).
T3 construct: made in house; host or cells: E. coli BH540 (fpg defective)
Nature of the data set: LlFpg 8-oxoG-DNA glycosylase/AP lyase activity assay (Urea-PAGE radioassay). Conditions: catalytic activity at 37 °C; compound stock (redox mixture) in DMSO; 20 nM 8-oxoG:C 24-mer, 2 nM LlFpg; read-out: IC50app^A (Fpg/Nei enzyme catalysis) LlFpg. The format is biochemical. The method, then: Figure 1 Effect of 2-thioxanthine (2TX)-derivatives on Fpg activity. A total of 20 nM of 5′-[^32P]-8-oxoG-containing 24-bp DNA duplex (labeled on the damaged strand) was incubated with 2 nM of LlFpg alone (dimethyl sulfoxide (DMSO) control) or with the indicated 2TX and 2TX-derivatives (TXn) concentrations, as described in the “Materials and Methods” section. (a) Screening of TXn for Fpg inhibition. Averages and standard deviations were obtained from at least three independent experiments. Mono- and di-thiolated compounds are highlighted in red and blue, respectively. (b) Dose-response curves for best inhibitors. Each data point represents the mean value obtained from at least three independent measurements.
as §2

The target in data set [3] is T2, hNeil1. The data set can be described thus: hNeil1 DNA glycosylase/AP lyase activity assay on DHU:G 24-mer duplex. Also noted: Overproduction was performed as described above for full length hNeil1; 6His (C); made in house; host or cells: E. coli Rosetta2 (DE3). The format is biochemical. As for the experimental part: as §1, §2
Target sequence in this assay (Q96FI4 whole entry): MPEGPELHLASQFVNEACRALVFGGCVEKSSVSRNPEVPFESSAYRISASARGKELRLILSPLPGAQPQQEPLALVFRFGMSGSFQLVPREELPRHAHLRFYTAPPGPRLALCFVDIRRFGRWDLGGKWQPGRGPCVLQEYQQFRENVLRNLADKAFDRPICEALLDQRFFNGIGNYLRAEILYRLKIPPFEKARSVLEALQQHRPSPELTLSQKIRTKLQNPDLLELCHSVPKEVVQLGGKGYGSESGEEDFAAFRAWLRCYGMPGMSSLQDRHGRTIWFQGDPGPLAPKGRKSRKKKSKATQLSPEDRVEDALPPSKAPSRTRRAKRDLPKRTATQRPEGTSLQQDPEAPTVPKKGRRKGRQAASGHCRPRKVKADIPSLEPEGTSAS
For data set [4], the target named is T1, mvNei1. The data set can be described thus: EMSA, mvNei1 DNA binding to THF-containing DNA duplex. Conditions: Figure 4. As for the experimental part:
Figure 4 Comparative analysis of the effect of 2TX and TXn on Fpg/Nei DNA glycosylases. Enzyme activities were measured as described in the Figure 1 legend using 0.1 nM of a 5′-[^32P]-24-mer DNA duplex containing either an 8-oxoG opposite C for LlFpg or a […] (DHU) opposite G for hNeil1 and mvNei1. The DNA probe was incubated with the indicated protein concentration and 0.2 mM TXn compounds in the presence or absence of 1 mM dithiothreitol (DTT) and TCEP (a representative experiment is illustrated by the upper histograms). […]
The DNA binding activity was measured using EMSA [37]. […] After electrophoresis, the gels were dried and exposed overnight for autoradiography using a Typhoon imager and quantified with ImageQuant software. To evaluate the inhibitor effect of 2TX/TXn on the DNA binding activity of each Fpg/Nei enzyme, we first determined the experimental conditions required to bind 50% of the DNA probes without an inhibitor in the presence of 8% DMSO (limiting enzyme concentration). […] This effect was determined by the addition of the thio-compound in the pre-equilibrium mixture of the enzyme and DNA probe (30 min) and incubated for an additional 30 min at 4 °C. For the best inhibitors of Fpg, a dose-response curve was established from at least three independent experiments and the IC50 was determined (IC50^B, Table 1).

Data set [5] deals with T4, LlFpg (Lactococcus lactis) (UniProt P42371).
T4 sequence: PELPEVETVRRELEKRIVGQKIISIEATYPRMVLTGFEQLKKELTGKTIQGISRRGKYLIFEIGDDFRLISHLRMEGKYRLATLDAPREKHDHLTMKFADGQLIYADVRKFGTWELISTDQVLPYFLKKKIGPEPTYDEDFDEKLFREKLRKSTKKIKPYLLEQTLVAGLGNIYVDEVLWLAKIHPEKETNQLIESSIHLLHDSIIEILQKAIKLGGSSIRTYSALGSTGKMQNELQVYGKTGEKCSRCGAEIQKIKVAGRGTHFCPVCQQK
The data set can be described thus: EMSA. Conditions: 8% DMSO, no inhibitor, complex C1 (1:1), N at position 7 of strand 1 = tetrahydrofuran (THF) abasic site analog, opposite C, EMSA: 0.1 nM probe, 25 mM HEPES/NaOH pH 7.5, 150 mM NaCl, 5% glycerol, 0.1 mg/mL BSA, 4 °C, 30 min, 10% native PAGE at 4 °C.

Another data set concerns mvNei1 (mimivirus). Nature of the data set: EMSA. Conditions: N at position 7 of strand 1 = tetrahydrofuran (THF) abasic site analog, opposite C; EMSA: 0.1 nM probe, 25 mM HEPES/NaOH pH 7.5, 150 mM NaCl, 5% glycerol, 0.1 mg/mL BSA, 8% DMSO, 4 °C, 30 min; 10% native PAGE at 4 °C.
Data set [6] concerns the target ∆hNeil1 (truncated hNeil1) (human) (UniProt Q96FI4). The data set can be described thus: EMSA. Conditions: 8% DMSO, no inhibitor, named hNeil1 in the sentence, N at position 7 of strand 1 = tetrahydrofuran (THF) abasic site analog, opposite C, EMSA: 0.1 nM probe, 25 mM HEPES/NaOH pH 7.5, 150 mM NaCl, 5% glycerol, 0.1 mg/mL BSA, 4 °C, 30 min, 10% native PAGE at 4 °C.

Where [7] appears, read: 1 mM TCEP (DTT to a lesser extent), Figure 4.

T1 sequence (Q5UQ00 whole entry): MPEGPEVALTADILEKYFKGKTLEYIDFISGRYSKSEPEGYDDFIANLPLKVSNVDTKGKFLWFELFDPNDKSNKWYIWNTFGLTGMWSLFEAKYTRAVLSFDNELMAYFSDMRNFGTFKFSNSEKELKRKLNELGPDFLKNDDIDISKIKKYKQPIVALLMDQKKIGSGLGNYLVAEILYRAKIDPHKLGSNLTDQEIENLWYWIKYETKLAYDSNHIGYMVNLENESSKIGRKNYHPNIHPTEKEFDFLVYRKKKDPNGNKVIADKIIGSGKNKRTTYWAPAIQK
∆hNeil1 (truncated hNeil1) (human), sequence (Q96FI4 whole entry, the tested form may be a part): as the sequence (Q96FI4 whole entry) above

In the case of `O=c1[nH]c2[nH]c(=S)[nH]c(=S)c2[nH]1` [TX16], the “effect on mvNei1 catalytic activity” value on mvNei1 [1] (0.2 mM compound, Figure 4) is reported as “apparent inhibitory effects”. Further, the “inhibition of mvNei1 DNA binding and catalytic activities in the presence of TCEP” value at mvNei1 [1] (setting [7]) was “suppressed”. Besides, the IC50 came to 14 ± 1 µM on mvNei1 [1] (catalytic activity at 37 °C, compound stock in DMSO, DHU:G 24-mer, read-out: IC50app^A (Fpg/Nei enzyme catalysis) mvNEI1); 41 ± 7 µM at LlFpg; 21 ± 1 µM at hNeil1 [3] (catalytic activity at 37 °C, compound stock in DMSO, DHU:G 24-mer, read-out: IC50app^A (Fpg/Nei enzyme catalysis) hNEIL1). For the same compound, the “effect on hNeil1 DNA binding activity” value on hNeil1 [2] was “apparent inhibitory effects”. In addition, the “effect on hNeil1 catalytic activity” value at hNeil1 [3] (0.2 mM compound, Figure 4) is given as “apparent inhibitory effects”. Moreover, the “inhibition of hNeil1 DNA binding and catalytic activities in the presence of TCEP” value at hNeil1 [3] (setting [7]) is on record as “suppressed”. Besides, the “effect on mvNei1 DNA binding activity” value on mvNei1 [4] is on record as “apparent inhibitory effects”.

In the case of “CTCTTTNTTTCTCG / GCGAGAAACAAAGA [14-mer THF:C]”, the results for the K half (in data set [5]; with mvNei1 (mimivirus); in data set [6]) were 0.25 nM, 5 nM and 7 nM, respectively.
